The conditions of the data set: 298.15 K, Liquid; for vapor or sublimation pressure: Closed cell (Static) method; for mass density: Vibrating tube method.

SMILES strings stand for the structures. Numbers after ± are expanded uncertainties.

Broadly, the vapor or sublimation pressure is the equilibrium pressure above the liquid or solid. As usually defined, the mass density is the mass of a sample divided by its volume.

As for `CCCCCl` [1-chlorobutane], the “vapor or sublimation pressure” value worked out at 13.52 ± 0.034 kPa and the mass density came to 880.805 ± 0.3 kg/m3.

For the molecule `CCCCO` [butan-1-ol], the “vapor or sublimation pressure” value is listed as 0.91 ± 0.012 kPa and the mass density came to 805.802 ± 0.15 kg/m3.

As for `CCC(C)O` (stereo not drawn) [butan-2-ol], the “vapor or sublimation pressure” value was found to be 2.34 ± 0.02 kPa and the mass density is given as 802.451 ± 0.31 kg/m3.

With `CCCCCC` [hexane], the “vapor or sublimation pressure” value was 20.22 ± 0.05 kPa and the mass density amounted to 654.96 ± 0.33 kg/m3.

The record behind these values is the NIST ThermoML archive (doi:10.1016/j.jct.2009.04.005).
